The values below come from US6114349A, “Substituted quinoline derivatives with antiviral action” (Hoechst Aktiengesellschaft, priority 1996, dated 2000).

Usually EC50 stands for the concentration giving half of the maximal effect.

For one series, the system named is HIV. In words: Testing of preparations against HIV in cell culture (giant cell formation in HIV-infected lymphocytes). Format: cell-based. The note with it: 3 days, 37° C.; for MIC: Human immunodeficiency virus 1, 72 h, lowest concentration at which no giant cells occurred; for EC50: Human immunodeficiency virus 1, Lymphocyte, 72 h. As to the method:
Testing of Preparations Against HIV Cell Culture
Complete medium additionally contains 20% fetal calf serum and 40 IU/ml of recombinant interleukin 2.
Lymphocytes isolated from fresh donor blood by means of Ficoll^R gradient centrifugation are cultured at 37° C. under 5% CO2 for 36 h in complete medium with addition of […] of phytohemagglutinin (Wellcome). After addition of 10% DMSO, the cells are frozen at a cell density of 5×10^6 and stored in liquid nitrogen. For the experiment, the cells are thawed, washed in RPMI medium and cultured in complete medium for 3-4 days.
The test preparations were dissolved in DMSO in a concentration of 16.7 mg/ml and diluted to 1 mg/ml in complete medium. 0.4 ml of medium was initially introduced into 24-well multiwell dishes. After addition of 0.1 ml of the dissolved preparation in the top row of the dish, a geometrical dilution series was produced by transfer of 0.1 ml in each case. Preparation-free controls always contained 0.4 ml of complete medium containing 0.5% DMSO. Lymphocyte cultures having a cell count of 5×10^5 cells/ml were infected by addition of 1/50 volumes of supernatant from HIV-infected lymphocyte cultures. The titer of these culture supernatants was determined by endpoint dilution with 1-5×10^6 infectious units/ml. After incubation at 37° C. for 30 min, the infected lymphocytes were removed by centrifugation and taken up again in the same volume of medium. 0.6 ml of this cell suspension in each case was added to all hollows of the test plate. The batches were incubated at 37° C. for 3 days.
The infected cell cultures were investigated under the microscope for the presence of giant cells, which indicate active virus replication in the culture. The lowest preparation concentration at which no giant cells occurred was determined as the inhibitory concentration against HIV. For the control, the supematants from the culture plates were determined for the presence of HIV antigen using an HIV antigen test according to the instructions of the manufacturer (Organon).

Series [1] concerns the target T1, HIV "Reverse Transcriptase" (Human immunodeficiency virus type 1 group M subtype B, UniProt P04585).
T1 construct: purchased HT Biotechnology LTD, Cambridge, UK; host or cells: E. coli
In words: Inhibition of HIV reverse transcriptase, Scintillation Proximity Assay (SPA). Format: biochemical. The note with it: RT-SPA, 60 min, 37° C.; read-out: Reverse Transcriptase Assay IC-50 (converted). As to the method: Investigation of the Substances for Inhibition of HIV "Reverse Transcriptase"
The activity of the reverse transcriptase (RT) was determined using a "Scintillation Proximity Assay" (SPA).
The reagent kit for the RT-SPA was obtained from Amersham/Buchler (Brunswick). The enzyme RT (from HIV cloned in E. coli) came from HT Biotechnology LTD, Cambridge, UK.
The test was carried out according to the method manual of the manufacturer Amersham--with the following modifications:
Bovine serum albumin was added to the assay buffer to a final concentration of 0.5 mg/ml.
The test was carried out in Eppendorf reaction vessels with a […] batch volume.
The RT concentrate of the manufacturer (5000 U/ml) was diluted to an activity of 15 U/ml in tris HCl buffer 20 mM; pH 7.2; 30% glycerol.
The incubation time for the batches was 60 min (37° C.).
After stopping the reaction and "development" with the bead suspension, 130 μl batches were transferred to 4.5 ml of tris HCl buffer, 10 mM; pH 7.4; 0.15 M NaCl and the tritium activity was measured in a β-counter.
For a preliminary test of the inhibitor activity, the substances were dissolved in DMSO (stock solution c=1 mg/ml) and tested in dilution in DMSO 10^-1, 10^-2, 10^-3 etc.
For the determination of IC50 values, the inhibitor stock solutions were further diluted in tris HCl buffer, 50 mM, pH 8 and tested in suitable concentrations.
From the graphic representation of RT activity versus Log Clnh., the concentration associated with a 50% enzyme inhibition was determined.
On the technique in general: SPA uses beads or plates that emit light when radiolabelled molecules are held near them.

For series [2] the following is noted: Hirsch, M. S. J. Infect. Dis. 157 (1988), 427-431; cited from earlier work.

≈ marks a conversion by molar mass, not a printed value.

Regarding `CCCOC(=O)c1c(C)c(=S)[nH]c2ccc(Cl)cc12` [Compound 45], in the series on HIV, the MIC was less than 0.2 µg/mL and the EC50 was roughly 0.04 µg/mL (≈ 0.135 µM). For the same molecule, the IC50 in series [1] was 34 nM.
In the series with HIV, `COC(=O)c1c(C)c(=S)[nH]c2ccc(Cl)cc12` [Compound 39] showed an MIC greater than 0.2 µg/mL and an EC50 of 0.03 µg/mL (≈ 0.112 µM).
On to `CC(C)Cc1c(C(=O)OC(C)C)c2ccccc2[nH]c1=O` [Compound 16], for which, in the series with HIV, the MIC was greater than 0.04 µg/mL and the half-maximal effective concentration (EC50) came out at 0.05 µg/mL (≈ 0.174 µM). In addition, in series [1], the IC50 was 372 nM.
Consider `Cc1c(C(=O)OC(C)C)c2cc(Cl)ccc2[nH]c1=O` [Compound 40], for which, in the series with HIV, the MIC is greater than 0.04 µg/mL and the concentration giving a half-maximal response (EC50) amounted to 0.015 µg/mL (≈ 0.0536 µM). In series [1], the IC50 is 608 nM.
In the series with HIV, `CC(C)OC(=O)c1c(C(C)C)c(=S)[nH]c2ccccc12` [Compound 35] had an MIC greater than 0.04 µg/mL and an EC50 greater than 0.008 µg/mL. Moreover, the IC50 in series [1] is 529 nM.
Consider `CC(C)OC(=O)c1c(-c2ccccc2)c(=S)[nH]c2ccc(F)cc12` [Compound 15], for which, in the series with HIV, the MIC was greater than 0.04 µg/mL and the EC50 was roughly 0.02 µg/mL (≈ 0.0586 µM). In series [1], the IC50 is 21 nM.
The like results for `C=CCOC(=O)c1c(CC)c(=S)[nH]c2ccc(Cl)cc12` [Compound 71] were, in that order, roughly 0.4 µg/mL (≈ 1.3 µM), less than 0.08 µg/mL and 1 nM.
As to `Nc1ccn([C@H]2CC[C@@H](CO)O2)c(=O)n1` [DDC], the “therapeutic breadth / toxicity” value in series [2] was “very narrow therapeutic breadth or by very severe toxicity which occurs even in the therapeutic range”.
Consider `CCc1c(C(=O)OC(C)C)c2cc(Cl)ccc2[nH]c1=O` [Compound 19, isopropyl 6-chloro-3-ethylquinolin-2(1H)-one-4-carboxylate], for which, in the series with HIV, the MIC was roughly 0.2 µg/mL (≈ 0.681 µM) and the half-maximal effective concentration (EC50) is roughly 0.02 µg/mL (≈ 0.0681 µM). For the same molecule, the IC50 in series [1] was 94 nM.
For `CCC(CC)OC(=O)c1c(-c2ccccc2)c(=S)[nH]c2ccc(Cl)cc12` [Compound 18], in the series on HIV, the MIC was greater than 0.2 µg/mL and the concentration giving a half-maximal response (EC50) is roughly 0.08 µg/mL (≈ 0.207 µM). The IC50 in series [1] was 29 nM.
On to `CCOC(=O)c1c(CC)c(=S)[nH]c2ccc(Cl)cc12` [Compound 67], for which the IC50 in series [1] is 1 nM.
Molecule `CC(C)OC(=O)c1c(-c2ccccc2Cl)c(=S)[nH]c2ccccc12` [Compound 61] registered an MIC in the series on HIV of roughly 0.08 µg/mL (≈ 0.224 µM). The IC50 in series [1] is 26 nM.
Regarding `CC(C)OC(=O)c1c(C(C)C)c(=O)[nH]c2ccccc12` [Compound 34], in the series with HIV, the MIC was greater than 0.2 µg/mL and the EC50 is roughly 0.1 µg/mL (≈ 0.366 µM). For the same molecule, the IC50 in series [1] is 1520 nM.
In the series with HIV, `Cc1c(C(=O)OCC2CC2)c2cc(Cl)ccc2[nH]c1=O` [Compound 42] showed an MIC greater than 0.2 µg/mL and a half-maximal effective concentration (EC50) of roughly 0.1 µg/mL (≈ 0.343 µM).
For `O=c1[nH]cnc2c1ncn2[C@H]1CC[C@@H](CO)O1` [DDI], in series [2], the “therapeutic breadth / toxicity” value is reported as “very narrow therapeutic breadth or by very severe toxicity which occurs even in the therapeutic range”.
For `CC(C)OC(=O)c1c(-c2ccccc2)c(=S)[nH]c2ccc(Cl)cc12` [Compound 6], the IC50 in series [1] is 22 nM.
In the series with HIV, `CCc1c(C(=O)OC2CCCC2)c2ccccc2[nH]c1=S` [Compound 30] gave an MIC of roughly 0.2 µg/mL (≈ 0.664 µM) and a 50% effective concentration (EC50) of roughly 0.04 µg/mL (≈ 0.133 µM). In series [1], the IC50 was 147 nM.
In the series with HIV, `CCc1c(C(=O)OC2CCCCC2)c2cc(Cl)ccc2[nH]c1=S` [Compound 70] showed an MIC of roughly 0.4 µg/mL (≈ 1.14 µM) and an EC50 of less than 0.08 µg/mL. Besides, the IC50 in series [1] was 8 nM.
In the series on HIV, `Cc1c(C(=O)OC(C)C)c2cc(Cl)ccc2[nH]c1=S` [Compound 41] had an MIC greater than 0.04 µg/mL and an EC50 of less than 0.001 µg/mL.
Turning to `CCc1c(C(=O)OC(C)C)c2ccccc2[nH]c1=S` [Compound 5], in the series with HIV, the MIC was determined as 0.2 µg/mL (≈ 0.726 µM) and the concentration giving a half-maximal response (EC50) is 0.005 µg/mL (≈ 0.0182 µM). Moreover, in series [1], the IC50 was 35 nM.
For `CCc1c(C(=O)OC(C)C)c2cc(Cl)ccc2[nH]c1=S` [Compound 20, isopropyl 6-chloro-3-ethylquinoline-2(1H)-thione-4-carboxylate] the same measures were greater than 0.008 µg/mL, roughly 0.002 µg/mL (≈ 0.00646 µM) and 8 nM.
Regarding `Cc1c(C(=O)OCC2CC2)c2cc(Cl)ccc2[nH]c1=S` [Compound 43], in series [1], the IC50 is 26 nM.
